# Measured values from patent US20210395239A1 (Hoffmann-La Roche Inc., priority 2018, published 2021).
# pIC50: −log10 of the molar value.
# Columns and labels:
# CYP3A4 = molecular target: T1, CYP3A4 (Homo sapiens, UniProt P08684); assay: CYP inhibition assay in human liver microsome, CYP3A4; assay type: in vitro ADME; settings: substrate midazolam 5 μM, third value of 2C9/2D6/3A4; for inhibition at 5 min, 10 µM: human, human liver microsomes, probe midazolam 5 μM
# T1 construct: tissue BD-Gentest 452117; host or cells: human liver microsomes
# T1 sequence (P08684 whole entry): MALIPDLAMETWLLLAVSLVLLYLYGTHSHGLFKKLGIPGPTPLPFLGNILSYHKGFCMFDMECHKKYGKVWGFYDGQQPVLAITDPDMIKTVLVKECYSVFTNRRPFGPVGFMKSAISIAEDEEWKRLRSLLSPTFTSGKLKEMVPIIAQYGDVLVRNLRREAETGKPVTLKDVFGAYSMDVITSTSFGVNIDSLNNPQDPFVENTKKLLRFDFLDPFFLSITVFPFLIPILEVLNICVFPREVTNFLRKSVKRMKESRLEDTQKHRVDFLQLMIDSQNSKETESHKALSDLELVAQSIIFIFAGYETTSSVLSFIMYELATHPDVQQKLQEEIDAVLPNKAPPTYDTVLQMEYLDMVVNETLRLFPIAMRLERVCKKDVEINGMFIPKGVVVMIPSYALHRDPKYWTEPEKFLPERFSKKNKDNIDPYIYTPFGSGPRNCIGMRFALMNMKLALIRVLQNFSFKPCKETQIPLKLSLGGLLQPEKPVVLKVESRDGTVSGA
# How it was run: (§1)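 Pooled human liver microsomes with a substrate for each CYP were incubated with compound at 37 °C after NADPH addition, for 5 min (CYP2D6: 10 min), then quenched with acetonitrile containing labelled metabolite standards. Metabolite/internal-standard peak area ratios were measured by RapidFire MS/MS. % inhibition was scaled between DMSO and standard-inhibitor controls.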
# human TLR8 = molecular target: T2, human TLR8 (Homo sapiens, UniProt Q9NR97); assay: HEK293-Blue-hTLR-8 cells assay (SEAP reporter, R848 stimulation); assay type: cell-based; settings: HEK293-Blue-hTLR8 cells, R848, 20 hrs; read-out: HEK/hTLR8 IC50
# T2 construct: host or cells: HEK293 (HEK-Blue hTLR8)
# T2 sequence (Q9NR97 27-1041): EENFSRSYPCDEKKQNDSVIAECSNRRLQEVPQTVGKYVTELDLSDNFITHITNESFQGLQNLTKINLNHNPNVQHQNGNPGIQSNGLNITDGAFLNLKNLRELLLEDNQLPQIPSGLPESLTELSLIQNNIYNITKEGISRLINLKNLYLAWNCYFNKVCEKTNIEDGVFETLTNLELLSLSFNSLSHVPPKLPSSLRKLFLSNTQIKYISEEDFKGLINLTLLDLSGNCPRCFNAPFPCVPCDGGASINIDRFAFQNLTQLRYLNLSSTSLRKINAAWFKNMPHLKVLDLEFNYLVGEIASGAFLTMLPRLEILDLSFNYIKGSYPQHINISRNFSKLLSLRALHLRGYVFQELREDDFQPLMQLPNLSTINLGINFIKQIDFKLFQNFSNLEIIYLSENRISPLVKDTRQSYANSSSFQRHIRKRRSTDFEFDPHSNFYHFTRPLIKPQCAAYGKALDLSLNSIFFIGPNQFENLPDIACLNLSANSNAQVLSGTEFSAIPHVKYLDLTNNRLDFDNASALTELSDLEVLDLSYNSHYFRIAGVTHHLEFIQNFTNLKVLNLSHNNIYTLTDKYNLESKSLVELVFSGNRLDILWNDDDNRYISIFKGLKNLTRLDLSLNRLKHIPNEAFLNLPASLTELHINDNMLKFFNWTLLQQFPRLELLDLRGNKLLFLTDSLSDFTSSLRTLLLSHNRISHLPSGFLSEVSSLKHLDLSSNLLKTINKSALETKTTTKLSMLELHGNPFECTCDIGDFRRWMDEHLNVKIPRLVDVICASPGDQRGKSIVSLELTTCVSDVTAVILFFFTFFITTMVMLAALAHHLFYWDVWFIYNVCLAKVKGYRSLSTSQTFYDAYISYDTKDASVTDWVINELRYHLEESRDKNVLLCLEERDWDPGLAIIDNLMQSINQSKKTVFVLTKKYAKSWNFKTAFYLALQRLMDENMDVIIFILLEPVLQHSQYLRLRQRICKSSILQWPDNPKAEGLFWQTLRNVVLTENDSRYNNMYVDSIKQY
# How it was run: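 HEK293-Blue-hTLR8 cells (NF-κB/AP-1-driven SEAP) incubated 20 h at 37° C with serially diluted compound (1% DMSO) plus R848 stimulation. Supernatant SEAP measured with QUANTI-Blue, 2 h at 37° C, absorbance 620–655 nm.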
# CYP2C9 = molecular target: T3, CYP2C9 (Homo sapiens, UniProt P11712); assay: CYP inhibition assay in human liver microsome, CYP2C9; assay type: in vitro ADME; settings: substrate diclofenac 5 μM, first value of 2C9/2D6/3A4; for inhibition at 5 min, 10 µM: human, human liver microsomes, probe diclofenac 5 μM
# T3 construct: tissue BD-Gentest 452117; host or cells: human liver microsomes
# T3 sequence (P11712 whole entry): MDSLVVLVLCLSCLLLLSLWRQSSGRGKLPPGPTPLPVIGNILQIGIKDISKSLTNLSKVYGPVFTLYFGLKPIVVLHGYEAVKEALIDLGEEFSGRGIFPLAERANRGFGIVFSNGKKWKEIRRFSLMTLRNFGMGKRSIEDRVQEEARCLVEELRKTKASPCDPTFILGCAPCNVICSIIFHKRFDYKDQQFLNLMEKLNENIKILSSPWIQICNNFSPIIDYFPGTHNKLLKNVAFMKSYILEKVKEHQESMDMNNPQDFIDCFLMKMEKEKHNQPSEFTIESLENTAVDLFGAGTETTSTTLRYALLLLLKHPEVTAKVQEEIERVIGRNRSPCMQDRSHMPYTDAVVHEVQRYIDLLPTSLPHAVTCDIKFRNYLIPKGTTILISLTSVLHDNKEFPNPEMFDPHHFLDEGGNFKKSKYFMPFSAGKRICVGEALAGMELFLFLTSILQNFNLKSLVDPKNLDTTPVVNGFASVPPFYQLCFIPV
# How it was run: as §1
pIC50 (human TLR8),Structure (SMILES),further results
7.64,"COC1CNC[C@H]1Nc1cccc(N2CCN(C[C@H]3CN(c4ccc(C#N)c5ncccc45)C[C@@H](C)O3)CC2)n1 (stereo in doubt) [Example 39, 5-[(2S,6R)-2-[[4-[6-[[(3R,4R)-4-methoxypyrrolidin-3-yl]amino]-2-pyridyl]piperazin-1-yl]methyl]-6-methyl-morpholin-4-yl]quinoline-8-carbonitrile]","inhibition at 5 min, 10 µM (CYP3A4): 23.5%; inhibition at 5 min, 10 µM (CYP2C9): 23%"
8.52,"COC1CN(c2nccc(N3CCN(C[C@H]4CN(c5ccc(C#N)c6ncccc56)C[C@@H](C)O4)CC3)n2)C[C@H]1N (stereo in doubt) [Example 52, 5-[(2S,6R)-2-[[4-[2-[(3R,4R)-3-amino-4-methoxy-pyrrolidin-1-yl]pyrimidin-4-yl]piperazin-1-yl]methyl]-6-methyl-morpholin-4-yl]quinoline-8-carbonitrile]",CYP (%) 3A4 inhibition (CYP3A4): 2%; CYP (%) 2C9 inhibition (CYP2C9): 3.5%
8.52,"CO[C@H]1CN(c2nccc(N3CCN(C[C@H]4CN(c5ccc(C#N)c6ncccc56)C[C@@H](C)O4)CC3)n2)CC1N (stereo in doubt) [Example 53, 5-[(2S,6R)-2-[[4-[2-[(3S,4S)-3-amino-4-methoxy-pyrrolidin-1-yl]pyrimidin-4-yl]piperazin-1-yl]methyl]-6-methyl-morpholin-4-yl]quinoline-8-carbonitrile]",CYP (%) 3A4 inhibition (CYP3A4): 7.5%; CYP (%) 2C9 inhibition (CYP2C9): −4.5%
8.05,"C[C@@H]1CN(c2ccc(C#N)c3ncccc23)C[C@H](CN2CCN(c3cncc(N4CCNCC4)c3)CC2)O1 [Example 7, 5-[(2R,6S)-2-methyl-6-[[4-(5-piperazin-1-yl-3-pyridyl)piperazin-1-yl]methyl]morpholin-4-yl]quinoline-8-carbonitrile]","inhibition at 5 min, 10 µM (CYP3A4): 15.5%; inhibition at 5 min, 10 µM (CYP2C9): 2%"
7.64,"Cc1cc(N2CCN(C[C@H]3CN(c4ccc(C#N)n5ncc(F)c45)C[C@@H](C)O3)CC2)nc(N2CCNCC2)n1 [Example 67, 3-Fluoro-4-[(2R,6S)-2-methyl-6-[[4-(6-methyl-2-piperazin-1-yl-pyrimidin-4-yl)piperazin-1-yl]methyl]morpholin-4-yl]pyrazolo[1,5-a]pyridine-7-carbonitrile]",
8.70,"Cc1cc(N2CCNCC2)nc(N2CCN(C[C@H]3CN(c4ccc(C#N)c5ncccc45)C[C@@H](C)O3)CC2)n1 [Example 68, 5-[(2R,6S)-2-methyl-6-[[4-(4-methyl-6-piperazin-1-yl-pyrimidin-2-yl)piperazin-1-yl]methyl]morpholin-4-yl]quinoline-8-carbonitrile]",
7.52,"C[C@@H]1CN(c2ccc(C#N)n3ncc(F)c23)C[C@H](CN2CCN(c3ccc(N4CC5(CNCCO5)C4)nc3)CC2)O1 [Example 169, 3-fluoro-4-[(2R,6S)-2-methyl-6-[[4-[6-(5-oxa-2,8-diazaspiro[3.5]nonan-2-yl)-3-pyridyl]piperazin-1-yl]methyl]morpholin-4-yl]pyrazolo[1,5-a]pyridine-7-carbonitrile]",
6.89,"C[C@@H]1CN(c2cc(=O)n(C)c3ncccc23)C[C@H](CN2CC(c3ccc(N4CCNCC4)cc3)C2)O1 [Example 171, 1-methyl-4-[(2R,6S)-2-methyl-6-[[3-(4-piperazin-1-ylphenyl)azetidin-1-yl]methyl]morpholin-4-yl]-1,8-naphthyridin-2-one]",
7.13,"C[C@@H]1CN(c2cc(=O)n(C)c3ncccc23)C[C@H](CN2CC(c3ccc(N4CC5(CNCCO5)C4)cc3)C2)O1 [Example 173, 1-methyl-4-[(2R,6S)-2-methyl-6-[[3-[4-(5-oxa-2,8-diazaspiro[3.5]nonan-2-yl)phenyl]azetidin-1-yl]methyl]morpholin-4-yl]-1,8-naphthyridin-2-one]",
7.92,"C[C@@H]1CN(c2ccc(C#N)n3ncc(F)c23)C[C@H](CN2CCN(c3ccc(N4CC[C@@H](N)[C@H](F)C4)nc3)CC2)O1 [Example 175, 4-[(2S,6R)-2-[[4-[6-[(3R,4R)-4-amino-3-fluoro-1-piperidyl]-3-pyridyl]piperazin-1-yl]methyl]-6-methyl-morpholin-4-yl]-3-fluoro-pyrazolo[1,5-a]pyridine-7-carbonitrile]",
6.49,"C[C@@H]1CN(c2cc(=O)n(C)c3ncccc23)C[C@H](CN2CC(c3ccc(N4CC(C)(N)C4)cc3)C2)O1 [Example 176, 4-[(2S,6R)-2-[[3-[4-(3-amino-3-methyl-azetidin-1-yl)phenyl]azetidin-1-yl]methyl]-6-methyl-morpholin-4-yl]-1-methyl-1,8-naphthyridin-2-one]",
7.57,"C[C@@H]1CN(c2ccc(C#N)n3ncc(F)c23)C[C@H](CN2CCN(c3ccc([C@@H]4CNCCO4)cc3)CC2)O1 [Example 177, 3-fluoro-4-[(2R,6S)-2-methyl-6-[[4-[4-[(2R)-morpholin-2-yl]phenyl]piperazin-1-yl]methyl]morpholin-4-yl]pyrazolo[1,5-a]pyridine-7-carbonitrile]",
7.04,"C[C@@H]1CN(c2ccc(C#N)n3ncc(F)c23)C[C@H](CN2CCN(c3ccc(N4CCOC5(CNC5)C4)nc3)CC2)O1 [Example 178, 3-fluoro-4-[(2R,6S)-2-methyl-6-[[4-[6-(5-oxa-2,8-diazaspiro[3.5]nonan-8-yl)-3-pyridyl]piperazin-1-yl]methyl]morpholin-4-yl]pyrazolo[1,5-a]pyridine-7-carbonitrile]",
7.27,"C[C@@H]1CN(c2ccc(C#N)n3ncc(F)c23)C[C@H](CN2CCN(c3ccc(N4CC5(CCN5)C4)nc3)CC2)O1 [Example 179, 4-[(2S,6R)-2-[[4-[6-(1,6-diazaspiro[3.3]heptan-6-yl)-3-pyridyl]piperazin-1-yl]methyl]-6-methyl-morpholin-4-yl]-3-fluoro-pyrazolo[1,5-a]pyridine-7-carbonitrile]",
7.11,"C[C@@H]1CN(c2cc(=O)n(C)c3ncccc23)C[C@H](CN2CC(c3ccc(N4CC5(CN(C)C5)C4)cc3)C2)O1 [Example 180, 1-methyl-4-[(2R,6S)-2-methyl-6-[[3-[4-(6-methyl-2,6-diazaspiro[3.3]heptan-2-yl)phenyl]azetidin-1-yl]methyl]morpholin-4-yl]-1,8-naphthyridin-2-one]",
7.29,"C[C@@H]1CN(c2cc(=O)n(C)c3ncccc23)C[C@H](CN2CC(c3ccc(N4C[C@H]5NCCO[C@@H]5C4)cc3)C2)O1 [Example 182, 4-[(2S,6R)-2-[[3-[4-[(4aR,7aR)-3,4,4a,5,7,7a-hexahydro-2H-pyrrolo[3,4-b][1,4]oxazin-6-yl]phenyl]azetidin-1-yl]methyl]-6-methyl-morpholin-4-yl]-1-methyl-1,8-naphthyridin-2-one]",
7.85,"C[C@@H]1CN(c2ccc(C#N)n3ncc(F)c23)C[C@H](CN2CCN(c3ccc([C@@H]4CNCCO4)c(F)c3)CC2)O1 [Example 184, 3-fluoro-4-[(2S,6R)-2-[[4-[3-fluoro-4-[(2R)-morpholin-2-yl]phenyl]piperazin-1-yl]methyl]-6-methyl-morpholin-4-yl]pyrazolo[1,5-a]pyridine-7-carbonitrile]",
7.48,"C[C@@H]1CN(c2ccc(C#N)n3ncc(F)c23)C[C@H](CN2CCN(c3ccc(C4(C)CNCCO4)cc3)CC2)O1 (stereo partly drawn) [Example 185, 3-fluoro-4-[(2R,6S)-2-methyl-6-[[4-[4-(2-methylmorpholin-2-yl)phenyl]piperazin-1-yl]methyl]morpholin-4-yl]pyrazolo[1,5-a]pyridine-7-carbonitrile]",
7.64,"C[C@@H]1CN(c2ccc(C#N)n3ncc(F)c23)C[C@H](CN2CCN(c3ccc(C[C@@H]4CNCCO4)cc3)CC2)O1 [Example 186, 3-fluoro-4-[(2R,6S)-2-methyl-6-[[4-[4-[[(2R)-morpholin-2-yl]methyl]phenyl]piperazin-1-yl]methyl]morpholin-4-yl]pyrazolo[1,5-a]pyridine-7-carbonitrile]",
